According to patent US11597727B2 (THE REGENTS OF THE UNIVERSITY OF CALIFORNIA, priority 2018, dated 2023):

Molecular target: T1, integrin α2β1 (Homo sapiens, UniProt P05556+P17301)
Experiment: Cell adhesion assay, adhesion to collagen in vitro (cell type not stated for these values)
Format: cell-based
Parameters: endogenous in cells
Conditions: compared with c15
Experimental: (§1) Cell adhesion Assay: Ninety-six-well flat-bottomed tissue culture plates were coated with rat tail collagen I for 1 hour at 37° C. After incubation, wells were blocked with 1% BSA at 37° C. for 1 hour. Control wells were filled with 1% BSA. HT1080 (human fibrosarcoma) cells (or human airway smooth muscle cells) were detached and resuspended in serum-free DMEM. Cells were incubated with anti-integrin alpha2 antibody control or 10-fold dilutions of each compound with a starting concentration of 10 uM for 15 minutes at 4° C. before plating. The plates were centrifuged at 10 g for 5 minutes before incubation for 1 hour at 37° C. in humidified 5% CO2. Nonadherent cells were removed by centrifugation (top side down) at 10 g for 5 minutes. Attached cells were stained with 0.5% crystal violet, and the wells were washed with PBS. The relative number of cells in each well was evaluated after solubilization in 40 μl of 2% Triton X-100 by measuring absorbance at 595 nm in a microplate reader. All determinations were carried out in triplicate.

T1 sequence (P17301 30-1181): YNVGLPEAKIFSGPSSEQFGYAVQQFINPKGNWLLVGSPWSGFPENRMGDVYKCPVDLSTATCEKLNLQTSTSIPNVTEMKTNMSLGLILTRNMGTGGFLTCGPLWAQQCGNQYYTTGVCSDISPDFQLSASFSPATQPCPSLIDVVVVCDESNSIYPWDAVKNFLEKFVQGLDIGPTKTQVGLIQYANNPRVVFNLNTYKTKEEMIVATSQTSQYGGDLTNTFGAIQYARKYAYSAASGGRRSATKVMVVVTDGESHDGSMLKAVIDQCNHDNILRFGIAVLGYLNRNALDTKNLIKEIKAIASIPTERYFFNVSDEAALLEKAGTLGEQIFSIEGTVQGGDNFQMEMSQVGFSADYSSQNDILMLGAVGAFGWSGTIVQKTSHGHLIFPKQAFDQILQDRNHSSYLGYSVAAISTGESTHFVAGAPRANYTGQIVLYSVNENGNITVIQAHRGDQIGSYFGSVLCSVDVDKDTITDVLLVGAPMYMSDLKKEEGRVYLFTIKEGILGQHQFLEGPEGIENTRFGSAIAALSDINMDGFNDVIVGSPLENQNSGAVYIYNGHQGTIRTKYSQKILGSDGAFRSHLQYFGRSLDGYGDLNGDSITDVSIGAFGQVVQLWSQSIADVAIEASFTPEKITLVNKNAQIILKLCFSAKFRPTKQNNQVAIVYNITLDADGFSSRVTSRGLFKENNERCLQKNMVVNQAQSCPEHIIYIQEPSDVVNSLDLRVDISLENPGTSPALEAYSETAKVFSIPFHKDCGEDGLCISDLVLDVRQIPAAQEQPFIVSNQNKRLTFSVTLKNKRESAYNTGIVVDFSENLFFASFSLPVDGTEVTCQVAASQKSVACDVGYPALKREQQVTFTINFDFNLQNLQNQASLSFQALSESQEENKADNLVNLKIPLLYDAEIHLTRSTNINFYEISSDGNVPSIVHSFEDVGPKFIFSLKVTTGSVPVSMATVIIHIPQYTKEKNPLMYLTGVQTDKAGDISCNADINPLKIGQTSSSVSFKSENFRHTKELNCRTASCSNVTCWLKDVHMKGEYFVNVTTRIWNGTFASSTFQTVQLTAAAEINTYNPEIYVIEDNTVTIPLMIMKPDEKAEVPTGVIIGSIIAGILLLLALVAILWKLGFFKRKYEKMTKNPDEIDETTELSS
T1 sequence (P05556 21-798): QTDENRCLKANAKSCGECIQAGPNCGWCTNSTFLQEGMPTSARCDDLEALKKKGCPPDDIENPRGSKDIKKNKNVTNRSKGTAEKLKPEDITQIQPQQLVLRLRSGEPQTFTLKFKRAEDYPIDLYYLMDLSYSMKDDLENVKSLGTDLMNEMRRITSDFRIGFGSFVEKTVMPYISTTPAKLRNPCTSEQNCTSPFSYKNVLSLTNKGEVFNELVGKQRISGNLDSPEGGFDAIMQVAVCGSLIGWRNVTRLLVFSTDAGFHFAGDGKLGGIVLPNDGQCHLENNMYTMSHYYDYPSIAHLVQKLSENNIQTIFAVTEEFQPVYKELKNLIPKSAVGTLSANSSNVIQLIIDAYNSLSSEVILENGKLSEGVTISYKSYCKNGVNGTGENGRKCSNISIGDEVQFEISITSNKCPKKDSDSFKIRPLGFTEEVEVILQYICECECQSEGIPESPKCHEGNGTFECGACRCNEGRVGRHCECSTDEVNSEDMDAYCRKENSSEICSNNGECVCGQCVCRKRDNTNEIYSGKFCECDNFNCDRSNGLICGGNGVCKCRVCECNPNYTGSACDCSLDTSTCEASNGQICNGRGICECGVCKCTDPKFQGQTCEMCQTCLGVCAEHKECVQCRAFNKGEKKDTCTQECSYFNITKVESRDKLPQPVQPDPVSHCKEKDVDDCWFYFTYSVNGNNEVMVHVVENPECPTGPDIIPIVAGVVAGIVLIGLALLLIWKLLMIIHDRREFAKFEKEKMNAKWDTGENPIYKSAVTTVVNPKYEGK

Row | Compound | fold less potent than c15 in a cell adhesion assay [fold]
1 | O=C(NCc1ccccc1)NC[C@H](NC(=O)c1c(Cl)cccc1Cl)C(=O)O [A2-4, (S)-3-(3-benzylureido)-2-(2,6-dichlorobenzamido)propanoic acid] | 2

Molecular target: T1, integrin α2β1
Experiment: HT 1080 cell adhesion assay on rat tail collagen I
Format: cell-based
Parameters: HT1080 (human fibrosarcoma) cells (or human airway smooth muscle cells) were detached and resuspended in serum-free DMEM; endogenous in cells; host or cells: HT1080 human fibrosarcoma cells
Conditions: HT1080 (human fibrosarcoma) cells on rat tail collagen I, absorbance at 595 nm, triplicate; read-out: IC50s from HT 1080 Cell adhesion assay
Experimental: as §1

Row | Compound | IC50 [µM]
2 | CC(C)(C)CNC(=O)NC[C@H](NC(=O)c1c(Cl)cccc1Cl)C(=O)O [KZ-1-40, (S)-2-(2,6-dichlorobenzamido)-3-(3-neopentylureido)propanoic acid] | > 100
3 | O=C(NCCC12CC3CC(CC(C3)C1)C2)NC[C@H](NC(=O)c1c(Cl)cccc1Cl)C(=O)O [A2-154, (S)-3-(3-(2-(adamantan-1-yl)ethyl)ureido)-2-(2,6-dichlorobenzamido)propanoic acid] | 10 to 100
4 | O=C(N[C@@H](CNc1nccc(-c2ccccc2)n1)C(=O)O)c1c(Cl)cccc1Cl [A2-73, (S)-2-(2,6-dichlorobenzamido)-3-((4-phenylpyrimidin-2-yl)amino)propanoic acid] | > 100
5 | COc1ccc(CNC(=O)NC[C@H](NC(=O)c2c(Cl)cccc2Cl)C(=O)O)cc1 [KZ-1-20, (S)-2-(2,6-dichlorobenzamido)-3-(3-(4-methoxybenzyl)ureido)propanoic acid] | > 100
6 | CN(C)C(=O)NC[C@H](NC(=O)c1c(Cl)cccc1Cl)C(=O)O [A2-70, (S)-2-(2,6-dichlorobenzamido)-3-(3,3-dimethylureido)propanoic acid] | > 100
7 | O=C(NC[C@H](NC(=O)c1c(Cl)cccc1Cl)C(=O)O)NC1CCC2(CCCCC2)CC1 [A2-179, (S)-2-(2,6-dichlorobenzamido)-3-(3-(spiro[5.5]undecan-3-yl)ureido)propanoic acid] | 10 to 100
8 | CC12CC3CC(C1)CC(NC(=O)NC[C@H](NC(=O)c1c(Cl)cccc1Cl)C(=O)O)(C3)C2 [A2-157, (S)-2-(2,6-dichlorobenzamido)-3-(3-(3-methyladamantan-1-yl)ureido)propanoic acid] | 10 to 100
9 | O=C(NC[C@H](NC(=O)c1c(Cl)cccc1Cl)C(=O)O)NC12CC3CC(CC(O)(C3)C1)C2 [A2-144, (S)-2-(2,6-dichlorobenzamido)-3-(3-(3-hydroxyadamantan-1-yl)ureido)propanoic acid] | 10 to 100
10 | O=C(NC[C@H](NC(=O)c1c(Cl)cccc1Cl)C(=O)O)N[C@@H]1CCc2ccccc21 [A2-85, (S)-2-(2,6-dichlorobenzamido)-3-(3-((R)-2,3-dihydro-1H-inden-1-yl)ureido)propanoic acid] | < 10
11 | O=C(NC[C@H](NC(=O)c1c(Cl)cccc1Cl)C(=O)O)N[C@H]1CCc2ccccc21 [A2-86, (S)-2-(2,6-dichlorobenzamido)-3-(3-((S)-2,3-dihydro-1H-inden-1-yl)ureido)propanoic acid] | 10 to 100
12 | CC12CC3CC(C)(C1)CC(NC(=O)NC[C@H](NC(=O)c1c(Cl)cccc1Cl)C(=O)O)(C3)C2 [A2-128, (S)-2-(2,6-dichlorobenzamido)-3-(3-(3,5-dimethyladamantan-1-yl)ureido)propanoic acid] | 10 to 100
13 | O=C(NC[C@H](NC(=O)c1c(Cl)cccc1Cl)C(=O)O)NC1CCc2ccccc2C1 (stereo partly drawn) [A2-126, (2S)-2-(2,6-dichlorobenzamido)-3-(3-(1,2,3,4-tetrahydronaphthalen-2-yl)ureido)propanoic acid] | < 10
14 | CCC12CC3CC(C1)CC(NC(=O)NC[C@H](NC(=O)c1c(Cl)cccc1Cl)C(=O)O)(C3)C2 [A2-129, (S)-2-(2,6-dichlorobenzamido)-3-(3-(3-ethyladamantan-1-yl)ureido)propanoic acid] | 10 to 100
15 | O=C(NC[C@H](NC(=O)c1c(Cl)cccc1Cl)C(=O)O)NCC12CC3CC(CC(Cl)(C3)C1)C2 [A2-156, (S)-3-(3-((3-chloroadamantan-1-yl)methyl)ureido)-2-(2,6-dichlorobenzamido)propanoic acid] | 10 to 100
16 | Nc1ccc(CNC(=O)NC[C@H](NC(=O)c2c(Cl)cccc2Cl)C(=O)O)cc1 [KZ-1-37, (S)-3-(3-(4-aminobenzyl)ureido)-2-(2,6-dichlorobenzamido)propanoic acid] | > 100
17 | O=C(NCC1CCc2ccccc21)NC[C@H](NC(=O)c1c(Cl)cccc1Cl)C(=O)O (some centres unmarked) [A2-123] | < 10
18 | C[C@@H]1[C@H]2C[C@@H](C[C@H]1NC(=O)NC[C@H](NC(=O)c1c(Cl)cccc1Cl)C(=O)O)C2(C)C [A2-170, (S)-2-(2,6-dichlorobenzamido)-3-(3-((1R,2R,3R,5S)-2,6,6-trimethylbicyclo[3.1.1]heptan-3-yl)ureido)propanoic acid] | 10 to 100
19 | CC(NC(=O)NCC(NC(=O)c1c(Cl)cccc1Cl)C(=O)O)C1CC2CCC1C2 [A2-176, (2S)-3-(3-(1-((1 S,4R)-bicyclo[2.2.1]heptan-2-yl)ethyl)ureido)-2-(2,6-dichlorobenzamido)propanoic acid] | 10 to 100
20 | O=C(CC1CCCCC1)N[C@@H](CNC(=O)NCc1ccccc1)C(=O)O [A2-64, (S)-3-(3-benzylureido)-2-(2-cyclohexylacetamido)propanoic acid] | > 100

Row | Compound | IC50 [µM]
21 | O=C(NC[C@H](NC(=O)c1c(Cl)cccc1Cl)C(=O)O)Nc1ccccc1 [KZ-1-25, (S)-2-(2,6-dichlorobenzamido)-3-(3-phenylureido)propanoic acid] | > 100
22 | Cc1cccc(CNC(=O)NC[C@H](NC(=O)c2c(Cl)cccc2Cl)C(=O)O)c1 [KZ-1-16, (S)-2-(2,6-dichlorobenzamido)-3-(3-(3-methylbenzyl)ureido)propanoic acid] | 10 to 100
23 | O=C(NCc1ccccc1Cl)NC[C@H](NC(=O)c1c(Cl)cccc1Cl)C(=O)O [KZ-1-18, (S)-3-(3-(2-chlorobenzyl)ureido)-2-(2,6-dichlorobenzamido)propanoic acid] | 10 to 100
24 | CC(NC(=O)NC[C@H](NC(=O)c1c(Cl)cccc1Cl)C(=O)O)C12CC3CC(CC(O)(C3)C1)C2 (stereo partly drawn) [A2-152, (2S)-2-(2,6-dichlorobenzamido)-3-(3-(1-(3-hydroxyadamantan-1-yl)ethyl)ureido)propanoic acid] | 10 to 100
25 | O=C(NCC1CC12CCCCC2)NC[C@H](NC(=O)c1c(Cl)cccc1Cl)C(=O)O (stereo partly drawn) [A2-177, (2S)-2-(2,6-dichlorobenzamido)-3-(3-(spiro[2.51]octan-1-ylmethyl)ureido)propanoic acid] | 10 to 100
26 | O=C(NCc1c(F)cccc1F)NC[C@H](NC(=O)c1c(Cl)cccc1Cl)C(=O)O [KZ-1-33, (S)-2-(2,6-dichlorobenzamido)-3-(3-(2,6-difluorobenzyl)ureido)propanoic acid] | > 100
27 | Cc1cccc(Cl)c1C(=O)N[C@@H](CNC(=O)NCc1ccccc1)C(=O)O [A2-35, (S)-3-(3-benzylureido)-2-(2-chloro-6-methylbenzamido)propanoic acid] | 10 to 100
28 | O=C(NCCC1C2CC3CC(C2)CC1C3)NC[C@H](NC(=O)c1c(Cl)cccc1Cl)C(=O)O (some centres unmarked) [A2-134] | 10 to 100
29 | O=C(NC[C@H](NC(=O)c1c(Cl)cccc1Cl)C(=O)O)N[C@H]1CCCc2ccccc21 [A2-125, (S)-2-(2,6-dichlorobenzamido)-3-(3-((S)-1,2,3,4-tetrahydronaphthalen-1-yl)ureido)propanoic acid] | < 10
30 | O=C(NC[C@H](NC(=O)c1c(Cl)cccc1Cl)C(=O)O)NC12CC3CC(C1)CC(C(=O)O)(C3)C2 [A2-143, 3-(3-((S)-2-carboxy-2-(2,6-dichlorobenzamido)ethyl)ureido)adamantane-1-carboxylic acid] | 10 to 100
31 | O=C(NC[C@H](NC(=O)c1c(Cl)cccc1Cl)C(=O)O)NC1C2CC3CC(C2)CC1C3 (stereo partly drawn) [A2-130, (S)-3-(3-(adamantan-2-yl)ureido)-2-(2,6-dichlorobenzamido)propanoic acid] | < 10
32 | Cc1ccccc1CNC(=O)NC[C@H](NC(=O)c1c(Cl)cccc1Cl)C(=O)O [KZ-1-39, (S)-2-(2,6-dichlorobenzamido)-3-(3-(2-methylbenzyl)ureido)propanoic acid] | 10 to 100
33 | O=C(NCc1ccccc1)NC[C@H](NC(=O)C1CCCCC1)C(=O)O [A2-63, (S)-3-(3-benzylureido)-2-(cyclohexanecarboxamido)propanoic acid] | > 100
34 | O=C(NCc1cc(F)cc(F)c1)NC[C@H](NC(=O)c1c(Cl)cccc1Cl)C(=O)O [KZ-1-32, (S)-2-(2,6-dichlorobenzamido)-3-(3-(3,5-difluorobenzyl)ureido)propanoic acid] | > 100
35 | O=C(NCC1CC2(CCC2)C1)NC[C@H](NC(=O)c1c(Cl)cccc1Cl)C(=O)O [A2-178, (S)-2-(2,6-dichlorobenzamido)-3-(3-(spiro[3.3]heptan-2-ylmethyl)ureido)propanoic acid] | 10 to 100
36 | COc1cccc(CNC(=O)NC[C@H](NC(=O)c2c(Cl)cccc2Cl)C(=O)O)c1 [KZ-1-15, (S)-2-(2,6-dichlorobenzamido)-3-(3-(3-methoxybenzyl)ureido)propanoic acid] | 10 to 100
37 | COc1cccc(OC)c1C(=O)N[C@@H](CNC(=O)NCc1ccccc1)C(=O)O [A2-28, (S)-3-(3-benzylureido)-2-(2,6-dimethoxybenzamido)propanoic acid] | > 100
38 | O=C(NC[C@H](NC(=O)c1c(Cl)cccc1Cl)C(=O)O)NC1Cc2ccccc2C1 [A2-84, (S)-2-(2,6-dichlorobenzamido)-3-(3-(2,3-dihydro-1H-inden-2-yl)ureido)propanoic acid] | 10 to 100
